Experimental data: article PMC12395388 (Regulatory toxicology and pharmacology : RTP, 2024)
Where two headings read alike, the source gives them in different places.

Legend:
[1] = tested on: Ames tester strains; conditions: cited from earlier work
[2] = cited from earlier work
[3] = tested on: Salmonella typhimurium TA98; assay: Preincubation Ames test, strain TA98; format: cell-based; conditions: strain TA98; for Effectiveness of time of preincubation for most effective S9: 30 vs 60 min
[4] = tested on: Salmonella typhimurium TA100; assay: Preincubation Ames test, strain TA100; format: cell-based; conditions: strain TA100; for Effectiveness of time of preincubation for most effective S9: 30 vs 60 min; for Effectiveness of hamster vs. rat S9s for each positive strain: H = hamster liver S9, R = rat liver S9
[5] = tested on: Salmonella typhimurium TA1535; assay: Preincubation Ames test, strain TA1535; format: cell-based; conditions: for More effective %S9 in S9 mix of more effective S9 (H or R) / Effectiveness of time of preincubation for most effective S9 / Effectiveness of hamster vs. rat S9s for each positive strain: strain TA1535; for More effective %S9 in S9 mix of more effective S9 (H or R): 10% vs 30% S9 in the S9 mix; for Effectiveness of time of preincubation for most effective S9: 30 vs 60 min; for Effectiveness of hamster vs. rat S9s for each positive strain: H = hamster liver S9, R = rat liver S9; for Mutagenic response in TA1535: any activation condition and preincubation time; for Ames response when tested as an aqueous suspension: 60 min preincubation, TA1535
[6] = tested on: E. coli WP2 uvrA (pKM101); assay: Preincubation Ames test, strain WP2 uvrA; format: cell-based, Escherichia coli; conditions: for Effectiveness of time of preincubation for most effective S9: strain WP2 uvrA (pKM101), 30 vs 60 min; for Mutagenic response in WP2 uvrA (pKM101): any activation condition and preincubation time
[7] = tested on: Salmonella typhimurium tester strains TA98, TA100, TA1535, and TA1537, and Escherichia coli strain WP2 uvrA (pKM101); assay: Preincubation Ames test, five tester strains; format: cell-based; conditions: for Effect of length of preincubation on positive responses: 30 min vs 60 min, over all strains
[8] = tested on: Drosophila; conditions: ref Vogel and Nivard, 1993; cited from earlier work
[9] = tested on: CHO, V79, L5178Y/Tk+/−, TK6, HepaRG cells; conditions: cited from earlier work
[10] = ref as given in Table 2 Notes (Kerklaan et al., 1981; Zeiger et al., 1972); cited from earlier work
[11] = published by FDA as of September 4, 2024, ref FDA, 2024a; cited from earlier work
[12] = ref IARC (https://monographs.iarc.who.int/agents-classified-by-the-iarc/); cited from earlier work
[13] = tested on: yeast; conditions: cited from earlier work
[14] = PC1 most potent, PC5 least potent; ref FDA, 2024a; cited from earlier work
[15] = tested on: Salmonella typhimurium TA1537; assay: Preincubation Ames test, strain TA1537; conditions: for Effectiveness of time of preincubation for most effective S9: 30 vs 60 min
[16] = parent drug with nitrite; ref Ozhan and Alpertunga, 2003; cited from earlier work
[17] = ref Wogan et al., 1975, cited from earlier work
[18] = in vivo; cited from earlier work
[19] = published/posted results, ref representative Ames references of Table 2
[20] = species as in value, ref as given in Table 2 Notes
[21] = cell lines as named in the value, ref as given in Table 2 Notes
[22] = listed as N-nitroso-methylphenylamine

CN(CCC(Oc1ccc(C(F)(F)F)cc1)c1ccccc1)N=O (centres unmarked) [NDSRI-22, N-Methyl-N-[3-phenyl-3-[4-(trifluoromethyl)phenoxy]propyl]nitrous amide]
Ames response (all S9-mediated except where noted) [1]: Positive | Mutagenicity in TGR assay ([2]; in vivo): mutagenic in rat TGR assay | More effective %S9 in S9 mix of more effective S9 (H or R) ([3]; 10% vs 30% S9 in the S9 mix): 30% only | Effectiveness of time of preincubation for most effective S9 [3]: 30min only | Effectiveness of hamster vs. rat S9s for each positive strain ([3]; H = hamster liver S9, R = rat liver S9): H only | More effective %S9 in S9 mix of more effective S9 (H or R) ([4]; 10% vs 30% S9 in the S9 mix): 30% only | Effectiveness of time of preincubation for most effective S9 [4]: 30min only | Effectiveness of hamster vs. rat S9s for each positive strain [4]: H only | More effective %S9 in S9 mix of more effective S9 (H or R) [5]: 30% only | Effectiveness of time of preincubation for most effective S9 [5]: 60min = 30min | Effectiveness of hamster vs. rat S9s for each positive strain [5]: H only | Effectiveness of time of preincubation for most effective S9 [6]: 30min >60min | Effect of length of preincubation on positive responses ([7]; listed as N-nitroso-fluoxetine): greater mutagenic responses with 30-min preincubations than with 60-min preincubations

CN(C)N=O [SM-1, N,N-Dimethylnitrous amide]
Ames response (all S9-mediated except where noted) [1, 19]: Positive; preincubation more sensitive | Mutagenicity in TGR assay [2, 20]: Mutagenic in mouse and rat TGR | Recombination in Drosophila [8]: recombinogen in Drosophila | Mutagenicity/genotoxicity in mammalian cells in vitro [9, 21]: mutagenic/genotoxic in CHO, V79, L5178Y/Tk^+/−, HepaRG cells | Mutagenicity in host-mediated assay [10]: Mutagenic | AI limit [11]: 96 ng/day | IARC classification [12]: Group 2A | Effectiveness of time of preincubation for most effective S9 [4]: 60min >30min | Effectiveness of time of preincubation for most effective S9 [5]: 60min >30min | Effectiveness of time of preincubation for most effective S9 [6]: 60min = 30min | Effect of length of preincubation on positive responses ([7]; listed as NDMA): benefited from a preincubation of 60 min compared with 30 min

CN(CCCC(=O)O)N=O [SM-7, 4-[Methyl(nitroso)amino] butanoic acid]
Mutagenicity/genotoxicity in mammalian cells in vitro [9, 21]: Mutagenic/genotoxic in yeast, TK6, HepaRG cells ([Mehta and Von Borstel, 1984]; [Li et al., 2022]; [Seo et al., 2023]) | AI limit [11]: 1500 ng/day | Mutagenicity/genotoxicity in yeast ([13]; ref Larimer et al., 1980, Mehta and Von Borstel, 1984): Mutagenic/genotoxic in yeast, TK6, HepaRG cells ([Mehta and Von Borstel, 1984]; [Li et al., 2022]; [Seo et al., 2023]) | CPCA Potency Category (PC) [14]: PC4

CN(N=O)c1ccccc1 [SM-6, N-Methyl-N-phenylnitrous amide]
Mutagenicity/genotoxicity in mammalian cells in vitro [9]: Mutagenic/genotoxic in yeast, TK6, HepaRG cells | Mutagenic response in TA1537 ([15]; any activation condition and preincubation time, listed as N-nitroso-methylphenylamine): positive | Effectiveness of time of preincubation for most effective S9 ([15]; strain TA1537): 60min = 30min | Effectiveness of hamster vs. rat S9s for each positive strain ([15]; strain TA1537, H = hamster liver S9, R = rat liver S9): H only | Mutagenicity/genotoxicity in yeast [13]: Mutagenic/genotoxic in yeast, TK6, HepaRG cells | Mutagenic response in TA1535 [5, 22]: negative | Mutagenic response in TA1535 ([5]; listed as NMPA): not positive | Mutagenic response in WP2 uvrA (pKM101) [6, 22]: positive | Mutagenic response in WP2 uvrA (pKM101) ([6]; listed as NMPA): mutagenic | Effectiveness of time of preincubation for most effective S9 [6]: 60min = 30min

CNCCC(Oc1ccc(C(F)(F)F)cc1)c1ccccc1 (centres unmarked) [Fluoxetine]
Genotoxicity under nitrosating conditions [16]: genotoxic under nitrosating conditions

O=NN1CC2CC(C1)c1cc3nccnc3cc12 [NDSRI-15, 8-Nitroso-7,8,9, 10-tetrahydro-6H-6, 10-methanoazepino[4,5-g]quinoxaline]
AI limit [11]: 400 ng/day | Effectiveness of time of preincubation for most effective S9 [3]: 60min ≥30min | Effectiveness of time of preincubation for most effective S9 [4]: 60min = 30min | Effectiveness of hamster vs. rat S9s for each positive strain [4]: H only | Effectiveness of time of preincubation for most effective S9 ([15]; strain TA1537): 60min ≥30min | Effectiveness of time of preincubation for most effective S9 [5]: 60min ≥30min | Effectiveness of time of preincubation for most effective S9 [6]: 60min = 30min | Effect of length of preincubation on positive responses [7]: benefited from a preincubation of 60 min compared with 30 min | CPCA Potency Category (PC) [14]: PC3

O=NN(c1ccccc1)c1ccccc1 [SM-11, N,N-Diphenylnitrous amide]
IARC classification [12]: Group 3

CCN(CC)N=O [SM-2, N,N-Diethylnitrous amide]
Ames response (all S9-mediated except where noted) [1, 19]: Positive; preincubation more sensitive | Mutagenicity in TGR assay [2, 20]: Mutagenic in rat and mouse TGR, error-corrected sequencing | Recombination in Drosophila [8]: recombinogen in Drosophila | Mutagenicity/genotoxicity in mammalian cells in vitro [9, 21]: mutagenic/genotoxic in CHO, L5178Y/Tk^+/−, V79, TK6, HepaRG cells | Mutagenicity in host-mediated assay [10]: Mutagenic | AI limit [11]: 26.5 ng/day

CCCCN(CCCC)N=O [SM-9, N,N-Dibutylnitrous amide]
Ames response (all S9-mediated except where noted) [1, 19]: Positive | IARC classification [12]: Group 2B | Effectiveness of time of preincubation for most effective S9 [4]: 30min ≥60min | Effectiveness of time of preincubation for most effective S9 [5]: 60min = 30min | Effectiveness of time of preincubation for most effective S9 [6]: 60min ≥30min

Nc1nc2ncc(CN(N=O)c3ccc(C(=O)NC(CCC(=O)O)C(=O)O)cc3)nc2c(=O)[nH]1 (centres unmarked) [NDSRI-28, 2-[[4-[(2-Amino-4-oxo-3 H-pteridin-6-yl)methyl-nitrosoamino)benzoyl]amino]pentanedioic acid]
Ames response (all S9-mediated except where noted) [1, 19]: Positive | Lung tumors in neonatal mouse cancer bioassay [17]: Weak positive for lung tumors in neonatal mouse assay ([Wogan et al., 1975]) | Lung tumors in neonatal mouse cancer bioassay ([17]; listed as N-nitroso-folic acid): induced lung tumors | AI limit [11]: 1500 ng/day | Ames response when tested as an aqueous suspension [5]: d Weakly positive/equivocal when tested as an aqueous suspension: see text and Supplementary Material. | Ames response when tested as an aqueous suspension ([5]; listed as N-nitroso-folic acid): equivocal or weakly positive | CPCA Potency Category (PC) [14]: PC4

Fc1ccc([C@@H]2CCNC[C@H]2COc2ccc3c(c2)OCO3)cc1 [Paroxetine]
Genotoxicity under nitrosating conditions [16]: Paroxetine genotoxic under nitrosating conditions ([Ozhan and Alpertunga, 2003])

CCOC(CN(CC(OCC)OCC)N=O)OCC [SM-12, N,N-Bis(2,2-diethoxyethyl)nitrous amide]
Carcinogenicity in rats [18]: noncarcinogenic in rats | Mutagenic response in TA1535 [5]: only positive strain | More effective %S9 in S9 mix of more effective S9 (H or R) [5]: 30% only | Effectiveness of time of preincubation for most effective S9 [5]: 60min = 30min | Effectiveness of hamster vs. rat S9s for each positive strain [5]: H only | Specificity for G:C or A:T target tester strains ([7]; G:C target: TA98, TA100, TA1535, TA1537, A:T target: WP2 uvrA (pKM101)): positive only in G:C detecting strains
